Patent publication US20230017045A1, “PYRIDINE AND PYRIMIDINE CARBOXYLATE HERBICIDES AND METHODS OF USE THEREOF” (Dow AgroSciences LLC, priority 2017, published 2023)
Read-outs that look alike come from different tables or passages of the source.

Tested on: test plant species
Test: Post-emergent herbicidal activity test (greenhouse, foliar spray, visual growth reduction)
Format: in vivo
Conditions: post-emergence, 336 h, 140 g ai/ha
Method: Post-emergent Test: Seeds or nutlets of the desired test plant species were planted in Sun Gro Metro-Mix® 360 planting mixture, which typically has a pH of 6.0 to 6.8 and an organic matter content of about 30 percent, in plastic pots with a surface area of 64 square centimeters. In some aspects, to ensure good germination and healthy plants, a fungicide treatment and/or other chemical or physical treatment was applied. The plants were grown for 7-21 d in a greenhouse with an approximate 15 h photoperiod which was maintained at 23-29° C. during the day and 22-28° C. during the night. Nutrients and water were added on a regular basis and supplemental lighting was provided with overhead metal halide 1000-Watt lamps as necessary. Plants were used for testing when they reached the first or second true leaf stage. A weighed amount, determined by the highest rate to be tested, of each test compound was placed in a 25 mL glass vial and was dissolved in 4 mL of a 97:3 v/v mixture of acetone and DMSO to obtain concentrated stock solutions. […] The concentrated stock solutions obtained were diluted with 20 mL of an aqueous mixture containing acetone, water, isopropyl alcohol, DMSO, […] crop oil concentrate, and X-77 surfactant in a 48.5:39:10:1.5:1.0:0.02 v/v ratio to obtain spray solutions containing the application rate. Compound requirements are based upon a 12 mL application volume at a rate of 187 liters per hectare (L/ha). Formulated compounds were applied to the plant material with an overhead Mandel track sprayer equipped with […] nozzles calibrated to deliver 187 L/ha over an application area of 0.64 square meters at a spray height of 18 inches (43 cm) above the average plant canopy height. Control plants were sprayed in the same manner with the solvent blank. The treated plants and control plants were placed in a greenhouse as described above and watered by subirrigation to prevent wash-off of the test compounds. After 14 d, the condition of the test plants as compared with that of the nontreated and control plants was determined visually and scored on a scale of 0 to 100 percent where 0 corresponds to no injury and 100 corresponds to complete control. In the reporting of the results, Table A: Percent Growth Reduction Conversion Table was used.

[1] = ECHCG: barnyardgrass (Echinochloa crus-galli), 14 days after application, read-out: Visual Growth Reduction (%) 14 Days After Application, ECHCG
[2] = IPOHE: ivy-leaf morning glory (Ipomoea hederacea), 14 days after application, read-out: Visual Growth Reduction (%) 14 Days After Application, IPOHE
[3] = KCHSC: kochia (Bassia scoparia), 14 days after application, read-out: Visual Growth Reduction (%) 14 Days After Application, KCHSC
[4] = ORYSA: rice (Oryza sativa), 14 days after application, read-out: Visual Growth Reduction (%) 14 Days After Application, ORYSA
[5] = SETFA: giant foxtail (Setaria faberi), 14 days after application, read-out: Visual Growth Reduction (%) 14 Days After Application, SETFA
[6] = SORVU: grain sorghum (Sorghum vulgare), 14 days after application, read-out: Visual Growth Reduction (%) 14 Days After Application, SORVU
[7] = STEME: common chickweed (Stellaria media), 14 days after application, read-out: Visual Growth Reduction (%) 14 Days After Application, STEME
[8] = TRZAS: wheat, spring (Triticum aestivum), 14 days after application, read-out: Visual Growth Reduction (%) 14 Days After Application, TRZAS
[9] = blackgrass (Alopecurus myosuroides), 14 Days After Application, read-out: Visual Growth Reduction (%) ALOMY
[10] = canada thistle (Cirsium arvense), 14 Days After Application, read-out: Visual Growth Reduction (%) CIRAR
[11] = crabgrass (Digitaria sanguinalis), 14 Days After Application, read-out: Visual Growth Reduction (%) DIGSA
[12] = lambsquarters (Chenopodium album), 14 Days After Application, read-out: Visual Growth Reduction (%) CHEAL
[13] = redroot pigweed (Amaranthus retroflexus), 14 Days After Application, read-out: Visual Growth Reduction (%) AMARE
[14] = wild oat (Avena fatua), 14 Days After Application, read-out: Visual Growth Reduction (%) AVEFA
[15] = yellow nutsedge (Cyperus esculentus), 14 Days After Application, read-out: Visual Growth Reduction (%) CYPES
[16] = ALOMY: blackgrass (Alopecurus myosuroides), 14 days after application, read-out: Visual Growth Reduction (%) 14 Days After Application, ALOMY
[17] = AMARE: redroot pigweed (Amaranthus retroflexus), 14 days after application, read-out: Visual Growth Reduction (%) 14 Days After Application, AMARE
[18] = AVEFA: wild oat (Avena fatua), 14 days after application, read-out: Visual Growth Reduction (%) 14 Days After Application, AVEFA
[19] = CHEAL: lambsquarters (Chenopodium album), 14 days after application, read-out: Visual Growth Reduction (%) 14 Days After Application, CHEAL
[20] = CIRAR: canada thistle (Cirsium arvense), 14 days after application, read-out: Visual Growth Reduction (%) 14 Days After Application, CIRAR
[21] = CYPES: yellow nutsedge (Cyperus esculentus), 14 days after application, read-out: Visual Growth Reduction (%) 14 Days After Application, CYPES
[22] = DIGSA: crabgrass (Digitaria sanguinalis), 14 days after application, read-out: Visual Growth Reduction (%) 14 Days After Application, DIGSA

Row | Structure (SMILES) | pest or weed control at 140 g/ha [1] [%] | pest or weed control at 140 g/ha [2] [%] | pest or weed control at 140 g/ha [3] [%] | pest or weed control at 140 g/ha [4] [%] | pest or weed control at 140 g/ha [5] [%] | pest or weed control at 140 g/ha [6] [%] | pest or weed control at 140 g/ha [7] [%] | pest or weed control at 140 g/ha [8] [%] | pest or weed control at 140 g/ha [9] [%] | pest or weed control at 140 g/ha [10] [%] | pest or weed control at 140 g/ha [11] [%] | pest or weed control at 140 g/ha [12] [%] | pest or weed control at 140 g/ha [13] [%] | pest or weed control at 140 g/ha [14] [%] | pest or weed control at 140 g/ha [15] [%] | further results
1 | COC(=O)c1cc2c(c(-c3ccc(Cl)c(C(=O)OC)n3)c1)OC(F)(F)O2 [F245, Methyl 3-chloro-6-(2,2-difluoro-6-(methoxycarbonyl)benzo[d][1,3]dioxol-4-yl)picolinate] | 0 to 29 | 85 to 94 | 0 to 29 | 0 to 29 | 0 to 29 | 75 to 84 | 0 to 29 | 0 to 29 | 0 to 29 | 0 to 29 | 0 to 29 | 85 to 94 | 0 to 29 | 0 to 29 | 45 to 59 | 
2 | COC(=O)c1nc(-c2ccc(C(F)(F)F)c(N)c2)ccc1Cl [F218, methyl 6-(3-amino-4-(trifluoromethyl)phenyl)-3-chloropicolinate] | 0 to 29 | 0 to 29 | 0 to 29 | 0 to 29 | 0 to 29 | 0 to 29 | 0 to 29 | 0 to 29 | 0 to 29 | 30 to 44 | 0 to 29 | 60 to 74 | 0 to 29 | 0 to 29 | 0 to 29 | 
3 | COC(=O)c1nc(-c2ccc(OS(C)(=O)=O)cc2Cl)ccc1Cl [F288, methyl 3-chloro-6-(2-chloro-4-((methylsulfonyl)oxy)phenyl)picolinate] | 60 to 74 | 95 to 100 | 75 to 84 | 0 to 29 | 60 to 74 | 85 to 94 | 0 to 29 | 30 to 44 | 0 to 29 | 95 to 100 | 75 to 84 | 85 to 94 | 85 to 94 | 0 to 29 | 0 to 29 | 
4 | COC(=O)c1nc(-c2ccc(C(F)(F)F)cc2Cl)c(O)cc1Cl [F34, methyl 3-chloro-6-(2-chloro-4-(trifluoromethyl)phenyl)-5-hydroxypicolinate] | 0 to 29 | 0 to 29 | 0 to 29 | 0 to 29 | 0 to 29 | 0 to 29 | 0 to 29 | 0 to 29 |  |  |  |  |  |  |  | pest or weed control at 140 g/ha [16]: 0 to 29%; pest or weed control at 140 g/ha [17]: 0 to 29%; pest or weed control at 140 g/ha [18]: 0 to 29%; pest or weed control at 140 g/ha [19]: 45 to 59%; pest or weed control at 140 g/ha [20]: 0 to 29%; pest or weed control at 140 g/ha [21]: 0 to 29%; pest or weed control at 140 g/ha [22]: 0 to 29%
5 | COC(=O)c1nc(-c2cc(OC)c(C(F)(F)F)cc2Cl)c(F)cc1Cl [F331, Methyl 3-chloro-6-(2-chloro-5-methoxy-4-(trifluoromethyl)phenyl)-5-fluoropicolinate] | 0 to 29 | 95 to 100 | 60 to 74 | 0 to 29 | 0 to 29 | 45 to 59 | 0 to 29 | 0 to 29 | 0 to 29 |  | 0 to 29 | 45 to 59 | 45 to 59 | 0 to 29 | 0 to 29 | 
6 | C#Cc1ccc(-c2ccc(Cl)c(C(=O)OC)n2)c(Cl)c1 [F18, Methyl 3-chloro-6-(2-chloro-4-ethynylphenyl) picolinate] |  |  |  |  |  |  |  |  |  |  |  |  |  |  |  | pest or weed control at 140 g/ha [16]: 0 to 29%; pest or weed control at 140 g/ha [17]: 0 to 29%; pest or weed control at 140 g/ha [18]: 0 to 29%; pest or weed control at 140 g/ha [19]: 0 to 29%; pest or weed control at 140 g/ha [20]: 0 to 29%; pest or weed control at 140 g/ha [21]: 0 to 29%; pest or weed control at 140 g/ha [22]: 0 to 29%; pest or weed control at 140 g/ha (barnyardgrass (Echinochloa crus-galli), 14 Days After Application, read-out: Visual Growth Reduction (%) ECHCG): 0 to 29%; pest or weed control at 140 g/ha (common chickweed (Stellaria media), 14 Days After Application, read-out: Visual Growth Reduction (%) STEME): 0 to 29%; pest or weed control at 140 g/ha (giant foxtail (Setaria faberi), 14 Days After Application, read-out: Visual Growth Reduction (%) SETFA): 0 to 29%; pest or weed control at 140 g/ha (ivy-leaf morning glory (Ipomoea hederacea), 14 Days After Application, read-out: Visual Growth Reduction (%) IPOHE): 0 to 29%; pest or weed control at 140 g/ha (johnsongrass (Sorghum vulgare), 14 Days After Application, read-out: Visual Growth Reduction (%) SORVU): 0 to 29%; pest or weed control at 140 g/ha (kochia (Bassia scoparia), 14 Days After Application, read-out: Visual Growth Reduction (%) KCHSC): 0 to 29%; pest or weed control at 140 g/ha (rice (Oryza sativa), 14 Days After Application, read-out: Visual Growth Reduction (%) ORYSA): 0 to 29%; pest or weed control at 140 g/ha (wheat, spring (Triticum aestivum), 14 Days After Application, read-out: Visual Growth Reduction (%) TRZAS): 0 to 29%
7 | COC(=O)c1nc(-c2ccc(F)cc2F)ccc1Cl [F268, Methyl 3-chloro-6-(2,4-difluorophenyl) picolinate] | 0 to 29 | 0 to 29 | 0 to 29 | 0 to 29 | 0 to 29 | 60 to 74 | 0 to 29 | 0 to 29 | 0 to 29 | 30 to 44 | 0 to 29 | 60 to 74 | 0 to 29 | 0 to 29 | 0 to 29 | 
